Measurements published in publication PMC4613240, “A Series of New Ligustrazine-Triterpenes Derivatives as Anti-Tumor Agents: Design, Synthesis, and Biological Evaluation” (International Journal of Molecular Sciences, 2015).

What was measured:
HepG2 cells [1] = assay: Apoptosis analysis by flow cytometry using Annexin V-FITC/PI staining; assay type: cell-based, human; conditions: 72 h, control 6%
Experimental: To substantiate the ability of 4a to induce apoptosis, further analysis was carried out using Annexin V-FITC/PI double staining technique in HepG2 cells. Cells stained with Annexin V-FITC and PI were classified as necrotic (Q1; Annexin^−/PI^+), late apoptotic (Q2; Annexin^+/PI^+), intact (Q3; Annexin^−/PI^−), or early apoptotic (Q4; Annexin^+/PI^−) cells. […] Even at the minimum concentration of 5 μM, 4a induced cell apoptosis at a ratio of 75.7% after 72 h of treatment.
The Annexin V-FITC/PI flow cytometric assay was performed to determine the early and late apoptosis in this assay according to the instruction of the manufacturer (Annexin V-FITC/PI, Beijing BioDee Biotech. Co., Ltd., Beijing, China). Briefly, HepG2 cells were treated with various concentrations of compound 4a (5, 6, 7 μM) for 72 h at 37 °C, then the treated cells were washed twice with cold PBS and centrifuged at 1000 rpm for 5 min. The harvested cells were resuspended in 200 μL binding buffer, containing 10 μL Annexin V-FITC. After 15 min, the cells were washed twice and resuspended in 300 μL binding buffer. At the same time, 10 μL PI was added. Then the cells were immediately analyzed with a flow cytometry.

[2] = system: HepG2 (human hepatocellular carcinoma); assay: MTT cytotoxicity assay, HepG2; assay type: cell-based; conditions: for IC50: 72 h, maximal tested concentration 20.0 μM
Experimental: (§1) The cytotoxicity of ligustrazine-triterpenes derivatives was evaluated on five tumor cell lines (Bel-7402, HepG2, HT-29, Hela, and MCF-7) using the standard MTT assay. In the study, the antineoplastic drug cisplatin (DDP) was selected as the positive control. The MDCK cell line was used to test the toxicity of the ligustrazine-triterpenes derivatives and DDP.
(§2) The cell lines Bel-7402 (human hepatocellular carcinoma), HepG2 (human hepatocellular carcinoma), HT-29 (human colon carcinoma), Hela (human cervical cancer), MCF-7 (human breast cancer) were included in this study. All these cell lines were provided by the Chinese Academy of Medical Sciences & Peking Union Medical College. Cultures were maintained as monolayers in RPMI 1640 supplemented with 10% (v/v) heat inactivated fetal bovine serum and 1% (v/v) enicillin/streptomycin (Thermo Technologies, New York, NY, USA) at 37 °C in a humidified atmosphere with 5% CO2. The ligustrazine derivatives under study were dissolved in DMSO (Sigma, St. Louis, MO, USA) and added at required concentrations to the cell culture. Cells incubated without the preparations served as the control.
(§3) The cytotoxicity of the compounds was evaluated on five cancer cell lines (Bel-7402, HepG2, HT-29, Hela, MCF-7) by the standard MTT assay. In short, exponentially growing cells were seeded into 96-well plates at a density 10^4 cells/mL. The plates were incubated at 37 °C in a humidified 5% CO2 atmosphere. Cells were allowed to adhere to the surface for 24 h and then treated with serial dilutions of the compounds for 72 h. Later, aliquots of [3-(4,5-dimethylthiazol-2-yl)-2,5-diphenyltetrazolium bromide] (MTT) solution (20 μL, 5 mg/mL) were added to each well and the incubation was continued for an additional 4 h. Then the supernatant medium was thrown away. The dark blue formazan crystals formed within the healthy cells were solubilized with DMSO (150 μL) and the absorbance was measured in a plate reader (BIORAD 550 spectrophotometer, Bio-rad Life Science Development Ltd., Beijing, China) at 490 nm. Wells containing no drugs were used as control group. The IC50 values were defined as the concentration of compounds that produced a 50% reduction of surviving cells and calculated using Logit-method. Tumor cell growth inhibitory rate was calculated in the following Equation (1): % inhibition = (1 − Sample group OD/Control group OD) × 100% (1)

HepG2 cells [3] = assay: Morphological observation using AO/EB double staining; assay type: cell-based, human; conditions: HepG2, 2, 4, 8 μM for 72 h
Experimental: To further characterize 4a-induced HepG2 cell apoptosis, the changes in cell morphology of the treated cells were determined using AO/EB double staining. AO is a vital dye that stains both live and dead cells as it can penetrate normal cell membrane. EB stains only cells that have lost their membrane integrity. Cells that stained green indicate viable cells, yellow indicate early apoptosis and orange/red indicate late apoptosis.
Apoptotic study was performed using AO/EB double staining. HepG2 cells were seeded in six well plates at a density of 1 × 10^4 cells/well and allowed to grow for 24 h. Then the cells were incubated in the presence of 4a at various concentrations (2, 4, 8 μΜ) at 37 °C and 5% CO2 for 72 h. After the treatment period, cells were collected and centrifuged; then the cells were suspended in phosphate-buffer saline (PBS) and centrifuged again. The liquid was removed; the cells were suspended in PBS. Then AO/EB (AO/EB, Sigma, USA) solution (1:1 v/v) was added to the cell suspension in a final concentration of 100 μg/mL. Cell morphologies were assessed under a fluorescent microscope.

[4] = system: Bel-7402 (human hepatocellular carcinoma); assay: MTT cytotoxicity assay, Bel-7402; assay type: cell-based; conditions: maximal tested concentration 20.0 μM
Experimental: as §1, §2, §3

Q: For `C=C(C)[C@@H]1CC[C@]2(C(=O)OCc3nc(C)c(C)nc3C)CC[C@]3(C)C(CCC4[C@@]5(C)CC[C@H](O)C(C)(C)C5CC[C@]43C)C12` (stereo partly drawn) [Compound 4a, 3β-Hydroxy-lup-20(29)-ene-28-oic acid-3,5,6-trimethylpyrazin-2-methyl ester], which “apoptosis ratio (early and late apoptosis)” value (“apoptosis ratio” for short) (HepG2 cells [1]; HepG2, 5 μM) is on record?
A: Its value is 75.7%.

Q: What about the “apoptosis ratio” value (HepG2 cells [1]; HepG2, 6 μM) of the same molecule?
A: The value was 76.6%.

Q: And the “apoptosis ratio” value (HepG2 cells [1]; HepG2, 7 μM)?
A: The value was 83.7%.

Q: And the IC50 [2]?
A: The IC50 was 4.48 µM.

Q: And the inhibition at 10 µM ([2]; Homo sapiens, HepG2, 10 μM, read-out: inhibition rate against HepG2)?
A: Its inhibition at 10 µM is 99.9%.

Q: And the IC50 ([2]; Homo sapiens, HepG2, 72 h)?
A: The IC50 was less than 5.23 µM.

Q: What about the “cell morphology after AO/EB double staining” value (HepG2 cells [3]) of the same molecule?
A: The value was “increased number of orange- and red-stained cells in a dose dependent manner”.

Q: What about the IC50 ([4]; 72 h) of the same molecule?
A: The IC50 was 4.19 µM.

Q: And the IC50 ([4]; Homo sapiens, Bel-7402, 72 h)?
A: Its IC50 is less than 5.23 µM.
